Structures can show the parent of a compound that is named as a salt. Where two headings read alike, the source gives them in different places.
Legend:
colonic 5-HT3 receptors = molecular target: T1, colonic 5-HT3 receptors (Cavia porcellus, UniProt O70212); assay: Colonic 5-HT3 receptor antagonism: inhibition of 2-methylserotonin-induced contraction of isolated distal colon (Test 1); type: biochemical, guinea pigs; details: for M (×10^-9 Mole): molar antagonist concentration corresponding to pA2, guinea pig distal colon, 2-methylserotonin; for Kb: pA2, isolated guinea pig distal colon
T1 construct: the distal colons (3-10 cm from the anus) were isolated and suspended in a Magnus tube filled with Krebs solution; from tissue; host or cells: isolated distal colon of male Hartley guinea pig
T1 sequence (O70212 20-490): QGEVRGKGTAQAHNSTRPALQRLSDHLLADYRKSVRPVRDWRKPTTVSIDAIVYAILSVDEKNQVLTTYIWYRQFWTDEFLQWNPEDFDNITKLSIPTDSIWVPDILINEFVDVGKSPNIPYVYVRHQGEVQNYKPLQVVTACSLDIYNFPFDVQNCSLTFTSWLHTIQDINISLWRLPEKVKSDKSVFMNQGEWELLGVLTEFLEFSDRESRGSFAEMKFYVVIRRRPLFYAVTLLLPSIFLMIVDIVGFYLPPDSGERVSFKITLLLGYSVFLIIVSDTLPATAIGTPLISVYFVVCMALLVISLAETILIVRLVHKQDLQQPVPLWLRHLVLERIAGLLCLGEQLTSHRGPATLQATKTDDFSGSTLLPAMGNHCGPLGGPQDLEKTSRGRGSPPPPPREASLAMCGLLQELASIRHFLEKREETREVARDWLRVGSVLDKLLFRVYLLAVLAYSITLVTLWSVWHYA

stress-related diarrhea = details: animal models; J. Pharmacol. Exp. Ther. 261, 297 (1992); cited from earlier work
cardiac 5-HT3 receptors = molecular target: T2, cardiac 5-HT3 receptors (Rattus norvegicus, UniProt P35563); assay: Antagonism against von Bezold-Jarisch reflex (BJ reflex): serotonin-induced reflexive bradycardia (Test 2); type: in vivo, SD rats; details: for ED50: rat, intravenous, 5 minutes prior to 30 µg/kg serotonin i.v., anesthetized male SD rats, read-out: ID50 (the source's name)
T2 construct: from tissue; host or cells: whole anaesthetised male SD rat (in vivo)
T2 sequence (P35563 24-483): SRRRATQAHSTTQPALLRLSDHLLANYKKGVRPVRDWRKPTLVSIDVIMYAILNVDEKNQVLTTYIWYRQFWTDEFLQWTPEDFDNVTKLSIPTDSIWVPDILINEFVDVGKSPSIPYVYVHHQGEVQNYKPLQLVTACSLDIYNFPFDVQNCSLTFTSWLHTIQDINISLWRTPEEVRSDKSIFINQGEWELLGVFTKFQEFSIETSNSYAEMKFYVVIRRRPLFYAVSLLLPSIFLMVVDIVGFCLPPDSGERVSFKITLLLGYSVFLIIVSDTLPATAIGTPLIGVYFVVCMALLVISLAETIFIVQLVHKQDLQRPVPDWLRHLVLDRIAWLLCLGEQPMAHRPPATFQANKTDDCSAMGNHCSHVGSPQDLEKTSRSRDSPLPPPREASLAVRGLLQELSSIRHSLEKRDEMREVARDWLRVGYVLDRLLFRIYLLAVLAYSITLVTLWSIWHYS
Procedure: This test was conducted following the method of Fozard, at al. (Arch. Pharmacology, 326, 36-44, 1984). Male SD rats with a body weight of around 300 g were anesthetized by intraabdominal administration of 1.25 g/kg urethane, and an intravenous injection cannula was inserted in the right femoral vein while a sphygmomanometric cannula was inserted into the left femoral artery. The pulse was determined by measuring the electrocardiogram R waves (secondary induction) with an instantaneous pulse rate meter. After confirming satisfactory reproducibility of the reflexive bradycardia induced by intravenous administration of 30 µg/kg serotonin, the test compounds were intravenously administered 5 minutes prior to serotonin administration, the inhibition rates with respect to the initial values were found and the 50% inhibition doses (ID50) were calculated.

[1] = system: restraint stress-induced diarrhea; assay: Inhibiting effect on restraint stress-induced diarrhea, oral administration (Test 3); type: in vivo, Wistar rats; details: for No. of animals with diarrhea / No. of animals used: feces observed 5 hours; for inhibition at 0.01 mg/kg: Rattus norvegicus, po, 1 h, read-out: Inhibition rate
Procedure: This test was conducted following the method of Miyata, et al. (The Journal of Pharmacology and Experimental Therapeutics Vol.261, No.1, 297 (1992)). Nine to ten-week-old male Wistar rats starved overnight were placed in stress cages and their feces produced in 5 hours were observed. Of 15 rats, 14 developed diarrhea. The test compounds were administered orally one hour prior to placement in the stress cage, and the rate of inhibition on diarrhea was measured.

[2] = contraction induced by 2-methylserotonin
[3] = 10μg/kg orally one hour prior to stress cage

## CN1C2CCC1CC(N1CCc3c(c4cccc5c4n3CCC5)C1=O)C2 (stereo not drawn) [H]
Colonic 5-HT3 receptors
  M (×10^-9 Mole): >10 ×10^-9 Mole
Colonic 5-HT3 receptors; [2]
  Kb: > 10 nM

## CN1C2CCCC1CC(NC(=O)c1nn(C)c3ccccc13)C2 (stereo not drawn) [Granisetron, N-(endo-9-methyl-9-azabicyclo[3,3,1]non-3-yl)-1-methylindazol-3-carboxamide hydrochloride]
stress-related diarrhea
  suppression of stress-related diarrhea: suppress stress-related diarrhea in animal models

## Cc1[nH]cnc1CN1CCc2c(c3ccccc3n2C)C1=O.Cl [Allosetron hydrochloride, 2,3,4,5-tetrahydro-5-methyl-2-[(5-methyl-1H-imidazol-4-yl)methyl]-1H-pyrido[4,3-b]indol-1-one hydrochloride]
Cardiac 5-HT3 receptors
  ED50: 0.28 µg/kg
Colonic 5-HT3 receptors
  M (×10^-9 Mole): 21 ×10^-9 Mole
Colonic 5-HT3 receptors; [2]
  Kb: 20 nM

## Cc1[nH]cnc1CN1CCCc2c(c3cccc4c3n2CC4)C1=O [D, 4,5,7,8,9,10-hexahydro-10-[(5-methyl-1H-imidazol-4-yl)methyl]-11H-azepino[4,3-b]pyrrolo[3,2,1-hi]indol-11-one]
Colonic 5-HT3 receptors
  M (×10^-9 Mole): >10 ×10^-9 Mole
Colonic 5-HT3 receptors; [2]
  Kb: > 10 nM

## Cc1[nH]cnc1CN1CCc2c(c3cccc4c3n2CC4)C1=O [B, 4,5,7,8-tetrahydro-9-[(5-methyl-1H-imidazol-4-yl)methyl]-pyrido[4,3-b]pyrrolo[3,2,1-hi]indol-10(9H)-one]
Colonic 5-HT3 receptors
  M (×10^-9 Mole): 10 ×10^-9 Mole
Colonic 5-HT3 receptors; [2]
  Kb: > 10 nM

## Cc1[nH]cnc1CN1CCc2c(c3cccc4c3n2C(c2ccccc2)CC4)C1=O.Cl (stereo not drawn) [Compound 1, 5,6,8,9,10,11-hexahydro-10-[(5-methyl-1H-imidazol-4-yl)methyl]-6-phenyl-11-oxo-4H-pyrido[3',4':4,5]pyrrolo[3,2,1-ij] quinoline hydrochloride]
Cardiac 5-HT3 receptors; BJ reflex ID50 ratio, vs Ondansetron
  activity on the heart receptors relative to Ondansetron: about 4 times
Cardiac 5-HT3 receptors; BJ reflex ID50 ratio, vs YM-060
  activity on the heart receptors relative to YM-060: about 1/19
Cardiac 5-HT3 receptors
  ED50: 0.5 µg/kg
[1]; [3]
  No. of animals with diarrhea / No. of animals used: 5/10
[1]
  inhibition at 0.01 mg/kg: 50%
Colonic 5-HT3 receptors; from Tests 1 and 2 (colon vs heart), vs Allosetron
  selectivity for colonic 5-HT3 receptors relative to Allosetron: about 90 times
Colonic 5-HT3 receptors; from Tests 1 and 2 (colon vs heart), vs Ondansetron
  selectivity for colonic 5-HT3 receptors relative to Ondansetron: about 125 times
Colonic 5-HT3 receptors; from Tests 1 and 2 (colon vs heart), vs YM-060
  selectivity for colonic 5-HT3 receptors relative to YM-060: about 190 times
Colonic 5-HT3 receptors; from Tests 1 and 2 (colon vs heart), vs compound A
  selectivity for colonic 5-HT3 receptors relative to compound A: about 100 times
Colonic 5-HT3 receptors
  M (×10^-9 Mole): 0.41 ×10^-9 Mole
Colonic 5-HT3 receptors; [2]
  Kb: 0.398 nM

## Cc1[nH]cnc1CN1CCc2c(c3cccc4c3n2-c2ccccc2CC4)C1=O [G, 3-[(4-methyl-1-H-imidazol-5-yl)methyl]-1,2,3,4,8,9-hexahydro-pyrido[4',3':2,3]indolo[1,7a,7-ab][1]benzazepin-4-one]
Colonic 5-HT3 receptors
  M (×10^-9 Mole): >10 ×10^-9 Mole
Colonic 5-HT3 receptors; [2]
  Kb: > 10 nM

## Cc1nccn1CC1CCc2c(c3ccccc3n2C)C1=O (stereo not drawn) [Ondansetron hydrochloride, 1,2,3,4-tetrahydro-9-methyl-3-[(2-methyl-1H-imidazol-1-yl)methyl]-4H-carbazol-4-one hydrochloride dihydrate]
stress-related diarrhea
  suppression of stress-related diarrhea: suppress stress-related diarrhea in animal models
Cardiac 5-HT3 receptors
  ED50: 2 µg/kg
Colonic 5-HT3 receptors
  M (×10^-9 Mole): 227 ×10^-9 Mole
Colonic 5-HT3 receptors; [2]
  Kb: 251 nM

## Cl.Cn1cc(C(=O)[C@@H]2CCc3nc[nH]c3C2)c2ccccc21 [YM-060, (R)-(-)-5-[(1-methylindol-3-yl)carbonyl]-4,5,6,7-tetrahydrobenzimidazole hydrochloride]
stress-related diarrhea
  suppression of stress-related diarrhea: suppress stress-related diarrhea in animal models
[1]; [3]
  No. of animals with diarrhea / No. of animals used: 7/10
[1]; 10μg/kg orally one hour prior to stress cage, inhibition of diarrhea
  inhibition at 0.01 mg/kg: 30%
Colonic 5-HT3 receptors
  M (×10^-9 Mole): 4.5 ×10^-9 Mole
Colonic 5-HT3 receptors; [2]
  Kb: 3.98 nM

## Cc1[nH]cnc1CN1CCc2c(c3cccc4c3n2CCO4)C1=O [C, 1,2,9,10-tetrahydro-8-[(5-methyl-1H-imidazol-4-yl)methyl]pyrido[3',4':4,5]pyrrolo[1,2,3-de][1,4]benzoxadin-7(8H)-one]
Colonic 5-HT3 receptors
  M (×10^-9 Mole): >10 ×10^-9 Mole
Colonic 5-HT3 receptors; [2]
  Kb: > 10 nM

## Cc1[nH]cnc1CN1CCc2c(c3cccc4c3n2CCC4)C1=O [A, 5,6,9,10-tetrahydro-10-[(5-methyl-1H-imidazol-4-yl)methyl]-4H-pyrido[3',4':4,5]pyrrolo[3,2,1-ij] quinolin-11(8H)-one]
Cardiac 5-HT3 receptors
  ED50: 0.11 µg/kg
[1]; [3]
  No. of animals with diarrhea / No. of animals used: 8/10
[1]
  inhibition at 0.01 mg/kg: 20%
Colonic 5-HT3 receptors
  M (×10^-9 Mole): 10 ×10^-9 Mole
Colonic 5-HT3 receptors; [2]
  Kb: 10 nM

## O=C1c2c(n3c4c(cccc24)CCC3)CCN1C1CN2CCC1CC2 (stereo not drawn) [I, 10-(1-azabicyclo-[2,2,2]oct-3-yl)-5,6,8,9,10,11-hexahydro-4H-pyrido[3',4':4,5]pyrrolo[3,2,1-ij]quinolin-11-one]
Colonic 5-HT3 receptors
  M (×10^-9 Mole): >10 ×10^-9 Mole
Colonic 5-HT3 receptors; [2]
  Kb: > 10 nM

## Cc1[nH]cnc1CN1CCc2c(c3cccc4c3n2CCCC4)C1=O [E]
Colonic 5-HT3 receptors; isolated guinea pig distal colon, contraction induced by 2-methylserotonin
  pA2: <8.0
Colonic 5-HT3 receptors
  M (×10^-9 Mole): >10 ×10^-9 Mole

## Cc1[nH]cnc1CN1CCCc2c(c3cccc4c3n2CCC4)C1=O [F, 11-[(5-methyl-1H-imidazol-4-yl)methyl]-5,6,9,10,11,12-hexahydro-4H,8H-azepino[3',4':4,5]pyrrolo[3,2,1-ij]quinolin-12-one]
Colonic 5-HT3 receptors
  M (×10^-9 Mole): >10 ×10^-9 Mole
Colonic 5-HT3 receptors; [2]
  Kb: > 10 nM

Source: patent EP0725068A1 (TOKYO TANABE COMPANY LIMITED, priority 1993, dated 1995)
